For series [1], the system named is ME-SFCs. The experiment in a line: Long-term study: transient cytokine exposure of ME-SFCs, decidualization 25 days after final treatment (IGFBP-1 ELISA). It counts as cell-based, human. The note with it: for SFC decidualization capacity after transient exposure: FIG. 4A-4B. Here is the method: (§1) In vitro exposure of ME-SFCs to inflammatory cytokines (e.g. TNFα) reduces decidualization capacity. […] After 24 hrs, culture supernatants were collected and IGFBP-1 protein levels were measured by ELISA. […] Twenty four hours later, the culture supernatants were collected and IGFBP-1 protein levels were measured by ELISA.

The subject of series [2] is ME-SFCs. The experiment in a line: Acute exposure of ME-SFCs to inflammatory cytokines, then cAMP decidualization (IGFBP-1 ELISA). It is filed as cell-based, human. Conditions: TNFα 1 pg/ml-10 ng/ml; SFCs from a normal subject; 24 hours; cAMP 0.5 mM. Here is the method:
as §1
For orientation: ELISA stands for enzyme-linked immunosorbent assay.

Series [3] relates to SFCs.

On to IL-1β: inflammatory cytokine, for which the “SFC decidualization capacity after transient exposure” value in series [1] was “persistent defects”.
TNFα: the “persistence of decidualization defects (reduced IGFBP1 production) after removal from culture” value in series [1] (TNFα 0.1-1.0 ng/ml on days 0 and 5, decidualization with cAMP alone or cAMP and medroxyprogesterone) is “at least 25 days”. For the same substance, the “SFC decidualization capacity after transient exposure” value in series [1] is “persistent defects”. The “decidualization capacity of SFCs” value in series [2] is reported as “dramatically reduces decidualization capacity”. For the same substance, the cell viability result in series [3] is “not affected”.

Values taken from patent US12146886B2, “Methods for detecting and treating endometriosis” (The Feinstein Institutes for Medical Research, priority 2018, dated 2024).
